Molecules are shown by their SMILES. The source made the active and inactive calls. The rule behind the calls is not given here.

The subject of data set [1] is Mus musculus. Briefly: Neuroprotective activity in Swiss albino mouse assessed as elevation of scopolamine-induced decrease in catalase level in brain at 5 mg/kg, po administered 30 mins prior to scopolamine challenge administered for 9 days measured after 1 min of compound incubation by spectrophotometrical analysis relative to vehicle-treated control. It counts as functional, organism-based.

Data set [2] deals with T1, Acetylcholinesterase (Homo sapiens, UniProt P22303). Conditions: at 10 µM.
T1 sequence (P22303 whole entry): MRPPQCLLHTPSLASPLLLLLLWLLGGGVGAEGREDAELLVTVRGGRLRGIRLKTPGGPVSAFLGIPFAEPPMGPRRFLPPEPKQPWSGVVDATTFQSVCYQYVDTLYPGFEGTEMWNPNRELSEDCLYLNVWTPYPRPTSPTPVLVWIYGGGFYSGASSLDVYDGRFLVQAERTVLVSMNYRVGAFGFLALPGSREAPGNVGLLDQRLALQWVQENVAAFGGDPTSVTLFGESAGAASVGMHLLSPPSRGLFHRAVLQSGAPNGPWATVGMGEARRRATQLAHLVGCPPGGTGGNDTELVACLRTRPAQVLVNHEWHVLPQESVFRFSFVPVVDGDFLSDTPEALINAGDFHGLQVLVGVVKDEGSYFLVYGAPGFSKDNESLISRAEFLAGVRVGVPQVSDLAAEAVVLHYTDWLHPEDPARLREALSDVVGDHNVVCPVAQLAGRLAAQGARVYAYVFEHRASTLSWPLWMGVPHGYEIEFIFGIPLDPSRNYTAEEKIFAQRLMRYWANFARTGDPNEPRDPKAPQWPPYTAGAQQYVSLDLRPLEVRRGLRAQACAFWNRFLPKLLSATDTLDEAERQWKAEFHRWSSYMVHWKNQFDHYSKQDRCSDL
Description: Inhibition of human erythrocyte AChE-induced Abeta (1 to 42) aggregation at 10 uM incubated for 24 hrs by thioflavin-T fluorescence assay
Data set [3] in a line: Toxicity in Swiss albino mouse assessed as change in water and food consumption at 677 to 2000 mg/kg, po for 14 days. Conditions: in vivo, 336 h. The format is organism-based.
The target in data set [4] is Cholinesterase (Equus caballus, UniProt P81908). Kind of data set: Inhibition of equine serum BuChE using BTCI as substrate preincubated for 30 mins followed by substrate addition measured after 30 mins by Ellman assay. (Ellman's reagent forms a yellow product with free thiols.)
Chain of Cholinesterase (P81908 whole entry): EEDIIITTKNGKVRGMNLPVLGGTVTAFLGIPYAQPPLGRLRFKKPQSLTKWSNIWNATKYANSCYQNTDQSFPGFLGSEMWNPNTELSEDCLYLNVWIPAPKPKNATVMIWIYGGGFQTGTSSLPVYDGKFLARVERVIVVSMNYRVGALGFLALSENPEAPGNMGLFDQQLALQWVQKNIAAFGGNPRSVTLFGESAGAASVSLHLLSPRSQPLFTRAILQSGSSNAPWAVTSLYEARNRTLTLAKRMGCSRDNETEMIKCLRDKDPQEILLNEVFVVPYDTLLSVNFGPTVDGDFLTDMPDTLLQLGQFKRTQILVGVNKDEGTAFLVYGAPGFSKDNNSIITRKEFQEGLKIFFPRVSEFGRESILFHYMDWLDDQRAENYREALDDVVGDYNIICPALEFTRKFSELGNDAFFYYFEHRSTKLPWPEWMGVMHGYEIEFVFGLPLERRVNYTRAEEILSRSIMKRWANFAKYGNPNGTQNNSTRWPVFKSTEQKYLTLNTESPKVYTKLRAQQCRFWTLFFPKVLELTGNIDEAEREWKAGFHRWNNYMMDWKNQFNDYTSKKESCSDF
A short description of data set [5]: Toxicity in Swiss albino mouse assessed as heart damage at 677 to 2000 mg/kg, po treated for 14 days measured on 15th day post treatment. The format is organism-based. The conditions noted are these: in vivo, 336 h.
Data set [6] can be described thus: Toxicity in Swiss albino mouse assessed as mortality at 677 to 2000 mg/kg, po for 14 days. It counts as organism-based. The conditions noted are these: in vivo, 336 h.
Data set [7] in a line: Toxicity in Swiss albino mouse assessed as change in body weight at 677 to 2000 mg/kg, po for 14 days. The format is organism-based. Conditions: in vivo, 336 h.
The nature of data set [8]: Toxicity in Swiss albino mouse assessed as kidney damage at 677 to 2000 mg/kg, po treated for 14 days measured on 15th day post treatment. It counts as organism-based. The conditions noted are these: in vivo, 336 h.
Data set [9] is described as follows: Cmax in Wistar rat at 5 mg/kg, po administered as a single dose by HPLC analysis. It counts as ADME, organism-based. On the set-up: dose 5 mg/kg, route oral. Conditions: in vivo.
Data set [10] has as its system Rattus norvegicus. Briefly: Neuroprotective activity in Wistar rat brain hippocampus assessed as increase in Abeta (1 to 42) insult-induced decrease in spontaneous alterations at 5 mg/kg, po administered for 15 days measured for last 5 days of treatment by Y Maze assay. It counts as functional, organism-based.
Data set [11] in a line: Permeability of the compound at 100 ug/ml incubated for 120 mins by PAMPA. The format is ADME. The conditions noted are these: read-out: Peff.
The nature of data set [12]: Toxicity in Swiss albino mouse assessed as liver damage at 677 to 2000 mg/kg, po treated for 14 days measured on 15th day post treatment. The format is organism-based. The conditions noted are these: in vivo, 336 h.
The target of data set [13] is T1, Acetylcholinesterase. Briefly: Mixed inhibition of human erythrocyte AChE at 0.05 to 0.4 uM using ATCI as substrate preincubated for 30 mins followed by substrate addition measured after 30 mins by Lineweaver-Burk plot analysis.
For data set [14], the system named is Mus musculus. Kind of data set: Neuroprotective activity in Swiss albino mouse assessed as inhibition of scopolamine-induced elevation in MDA level in brain at 5 mg/kg, po administered 30 mins prior to scopolamine challenge administered for 9 days measured after 20 mins of compound incubation by TBARS assay relative to vehicle-treated control. It counts as functional, organism-based.

Data set [15] in a line: Tmax in Wistar rat at 5 mg/kg, po administered as a single dose by HPLC analysis. The format is ADME, organism-based. Conditions: in vivo.
The nature of data set [16]: Terminal half life in Wistar rat at 5 mg/kg, po administered as a single dose by HPLC analysis. Conditions: in vivo, read-out: beta t1/2 (converted). It counts as ADME, organism-based.
Data set [17] can be described thus: AUC(0 to 8 hrs) in Wistar rat at 5 mg/kg, po administered as a single dose by HPLC analysis. The format is ADME, organism-based. On the set-up: time < 6 hr, dose 5 mg/kg, route oral. Conditions: in vivo.
Data set [18] in a line: in vitro. Conditions: human, SH-SY5Y cells.
Description: Cytotoxicity against human SH-SY5Y cells assessed as cell viability at 80 uM after 24 hrs by MTT assay
Data set [19] is described as follows: in vitro. Conditions: human, SH-SY5Y cells. The source holds these as a separate data set.
Description: Cytotoxicity against human SH-SY5Y cells assessed as cell viability at 40 uM after 24 hrs by MTT assay
Data set [20] is described as follows: Toxicity in Swiss albino mouse assessed as changes in fur sleekness at 677 to 2000 mg/kg, po for 14 days. It counts as organism-based. The conditions noted are these: in vivo, 336 h.
Data set [21] deals with T1, Acetylcholinesterase. Briefly: Inhibition of human erythrocyte AChE using ATCI as substrate preincubated for 30 mins followed by substrate addition measured after 30 mins by Ellman assay.

Broadly, the inhibition is the share of the control response that was lost under treatment. The IC50 is the concentration that inhibits the measured activity by half. A high value points to weaker potency in that assay. In general, Cmax refers to the highest concentration seen after dosing. One may read the Tmax as the time from dosing to the highest level. For orientation: AUC(0-t) means exposure summed from dosing to a finite time, without extrapolation to infinity. High values mean high exposure, low ones low exposure. For orientation: viability means a read-out of living cells in per cent, often relative to untreated cells. Read a high viability as less harm to the cells. Consider `Cc1ccc(-c2nc(NCC3CCN(Cc4cc(F)cc(F)c4)CC3)sc2-c2ccc(C)cc2)cc1`, for which the result in [1], in data set [10] and in data set [14] was Active. The same molecule yielded an inhibition in [2] of 27.6%. The Activity entry in data set [3], in [5], in data set [6], in [7], in [8] and in data set [12] was “Non-Toxic” throughout. In addition, the Activity result in data set [20] is listed as “Non-Toxic”. Further, the IC50 in data set [4] was determined as 1840 nM. For the same molecule, the highest concentration (Cmax) in [9] is 21.2 ng/mL. In data set [11], the Papp at 2 h, 100 ug/ml was found to be 14.5 ×10⁻⁶ cm/s. Further, the inhibition entry in data set [13] is “Active”. Besides, in data set [15], the Tmax is 3.66 h. For the same molecule, the half-life in data set [16] was 19.4 h. This molecule showed an area under the curve AUC(0-t) at 6 h in data set [17] of 587 ng·h/mL. Moreover, the viability at 24 h, 80 µM in data set [18] amounted to 91.3%. This molecule also came in with a viability at 24 h, 40 µM in [19] of 95.2%.

As to `COc1ccc(-c2nc(NC3CCN(Cc4ccc(C)cc4)CC3)sc2-c2ccc(OC)cc2)cc1`, in data set [2], the inhibition is 19.2%. Further, the 50% inhibitory concentration (IC50) in data set [4] was determined as 2250 nM; in data set [21], 830 nM. The Papp at 2 h, 100 ug/ml in data set [11] amounted to 9.6 ×10⁻⁶ cm/s. In data set [18], the viability at 24 h, 80 µM was 89.5%. In data set [19], this molecule returned a viability at 24 h, 40 µM of 95.4%.

Consider `Cc1ccccc1CN1CCC(CNc2nc(-c3ccc(Cl)cc3)c(-c3ccc(Cl)cc3)s2)CC1`, for which the inhibition in [2] was 23.3%. Also, the results for the IC50 in data set [4] and in data set [21] were 1430 nM and 870 nM, respectively. The Papp at 2 h, 100 ug/ml in [11] stood at 8.8 ×10⁻⁶ cm/s. Besides, the viability at 24 h, 80 µM in data set [18] was 90.9%. This molecule registered a viability at 24 h, 40 µM in data set [19] of 95.4%.

Regarding `Fc1cc(F)cc(CN2CCC(CNc3nc(-c4ccc(Cl)cc4)c(-c4ccc(Cl)cc4)s3)CC2)c1`, in data set [2], the inhibition worked out at 19.4%. The IC50 in [4] stood at 820 nM; in data set [21] it was 630 nM. The Papp at 2 h, 100 ug/ml in data set [11] turned out to be 12.5 ×10⁻⁶ cm/s. In data set [18], the viability at 24 h, 80 µM amounted to 91.7%. Moreover, the viability at 24 h, 40 µM in data set [19] is 92.4%.

(Values after ChEMBL document CHEMBL4477206, “Benzylpiperidine-Linked Diarylthiazoles as Potential Anti-Alzheimer's Agents: Synthesis and Biological Evaluation” (J Med Chem, 2016).)
